Assay [1] concerns the target T1, ApmA (Staphylococcus aureus, UniProt A0A1D0AST6).
T1 construct: full length, residues 1-274 described; synthetic gene in pET19b-TEV, E. coli BL21(DE3) host; N-terminal His10 tag cut by TEV for crystals; SeMet form also made; trimer
Put plainly: X-ray crystallography ([…] A). It counts as binding. To be noted: acetyl donor; crystals: 0.1 M citric acid pH 3.6, 30% PEG 200, 5 mM apramycin, 2 mM acetyl-CoA.

For assay [2], the target named is T1, ApmA. In words: X-ray crystallography ([…] A); acetylation product shown by HR-ESI-MS and NMR. It counts as binding. To be noted: crystals: 0.2 M CaCl (so in the source), 20% PEG 3350, 5 mM apramycin; turnover: 500 uM acetyl-CoA, pH 7.5, room temperature; acetylated at 2'-NH2; PDB id printed as 7J6M2 (typo for 7JM2).

The structures appear in SMILES notation.

T1 sequence (A0A1D0AST6 entry or part of it): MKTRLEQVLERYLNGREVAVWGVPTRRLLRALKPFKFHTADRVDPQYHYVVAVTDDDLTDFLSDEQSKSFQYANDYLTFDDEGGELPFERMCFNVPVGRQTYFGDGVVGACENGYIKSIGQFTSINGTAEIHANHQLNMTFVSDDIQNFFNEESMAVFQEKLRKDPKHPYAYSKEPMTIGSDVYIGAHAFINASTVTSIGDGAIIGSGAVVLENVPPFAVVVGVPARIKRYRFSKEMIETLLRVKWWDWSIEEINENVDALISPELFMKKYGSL

Regarding `CC(=O)SCCNC(=O)CCNC(=O)[C@H](O)C(C)(C)COP(=O)(O)OP(=O)(O)OC[C@H]1O[C@@H](n2cnc3c(N)ncnc32)[C@H](O)[C@@H]1OP(=O)(O)O` [acetyl-CoA], the “X-ray crystallography (2.30 A)” value at ApmA [1] is on record as 7JM1 (ApmA complex with acetyl-CoA).
For the molecule `CN[C@@H]1[C@@H](O[C@H]2O[C@H](CO)[C@@H](N)[C@H](O)[C@H]2O)O[C@H]2C[C@@H](N)[C@@H](O[C@H]3[C@H](O)[C@@H](O)[C@H](N)C[C@@H]3N)O[C@@H]2[C@@H]1O` [apramycin], the “X-ray crystallography (1.85 A); acetylation product shown by HR-ESI-MS and NMR” value at ApmA [2] was “Crystals of the apoenzyme and ApmA in complex with apramycin or acetyl-CoA were obtained”.

Source of the values: paper PMC7885111, “ApmA Is a Unique Aminoglycoside Antibiotic Acetyltransferase That Inactivates Apramycin” (mBio, 2021).
